Data set [1] is classed as in vivo, human.
The nature of data set [2]: Projected human oral half-life. The note with it: projection before first-in-human dosing.
The format of data set [3] is in vivo, human. The source holds these as a separate data set.
Data set [4] is described as follows: 28-day GLP dog toxicology studies. The class given is in vivo. The note with it: dog (most sensitive species).
Where [5] appears, read: RP2D 600 mg twice a day (20 patients), any grade.
The mark [6] stands for this setting: multiple doses of 150 mg and 300 mg once daily, individual patients.

`C=C(F)C(=O)N1CCN(c2nc(OC[C@@H]3CCCN3C)nc3c2CCN(c2cccc4cccc(Cl)c24)C3)C[C@@H]1CC#N` [Adagrasib]: in data set [1] (150 mg, 300 mg, 600 mg once daily, one patient each), the DLTs result is reported as “No DLTs”. The “patients who experienced DLTs” value in data set [1] (600 mg twice a day, DLT-evaluable patients) is “three of the 18”. Further, the “patients who experienced a DLT” value in data set [1] (600 mg twice a day, first cohort of six evaluable patients) is “one patient”. In data set [1] (RP2D 600 mg twice a day), the “TRAE fatigue, grade 3/4” value is on record as 15.0%. In data set [1] (setting [5]), this molecule registered a TRAE diarrhea of 70.0%, a TRAE fatigue of 45.0%, a TRAE nausea of 80.0% and a TRAE vomiting of 50.0%. Moreover, in data set [1] (all dose cohorts), the maximum tolerated dose result is given as “No maximum tolerated dose was formally defined”. In data set [1] (all dose levels, 23 DLT-evaluable patients), the “patients who experienced one or more DLTs” value is recorded as 21.7%. Further, the “recommended phase II dose (RP2D)” value in data set [1] (oral, based on safety, tolerability and PK) amounted to 600 mg twice a day. The “projected human oral t1/2” value in data set [2] was “approximately 15 hours”. For the same molecule, in data set [3] (setting [6]), the PTR entry is “approximately three” and the drug accumulation result was “approximately three- to four-fold”. In addition, the accumulation of adagrasib entry in data set [3] (multiple doses of 600 mg twice a day, steady state) is listed as “approximately five- to six-fold”. For the same molecule, in data set [4], the “highest nonseverely toxic dose (HNSTD)” value is reported as 25 mg/kg/day.
